From ChEMBL document CHEMBL3994622, “Design and synthesis of new RAF kinase-inhibiting antiproliferative quinoline derivatives. Part 2: Diarylurea derivatives” (Eur J Med Chem, 2017)

Legend:
[1] = biological target: Tyrosine-protein kinase ABL1 (Homo sapiens) (UniProt P00519); test: Inhibition of human ABL1 at 10 uM using EAIYAAPFAKKK as substrate in presence of [33P]ATP by Hotspot assay relative to control
[2] = biological target: Serine/threonine-protein kinase B-raf (Homo sapiens, UniProt P15056); test: Inhibition of human BRAF at 10 uM using MEK1 as substrate in presence of [33P]ATP by Hotspot assay relative to control
Sequence of Serine/threonine-protein kinase B-raf (P15056 whole entry): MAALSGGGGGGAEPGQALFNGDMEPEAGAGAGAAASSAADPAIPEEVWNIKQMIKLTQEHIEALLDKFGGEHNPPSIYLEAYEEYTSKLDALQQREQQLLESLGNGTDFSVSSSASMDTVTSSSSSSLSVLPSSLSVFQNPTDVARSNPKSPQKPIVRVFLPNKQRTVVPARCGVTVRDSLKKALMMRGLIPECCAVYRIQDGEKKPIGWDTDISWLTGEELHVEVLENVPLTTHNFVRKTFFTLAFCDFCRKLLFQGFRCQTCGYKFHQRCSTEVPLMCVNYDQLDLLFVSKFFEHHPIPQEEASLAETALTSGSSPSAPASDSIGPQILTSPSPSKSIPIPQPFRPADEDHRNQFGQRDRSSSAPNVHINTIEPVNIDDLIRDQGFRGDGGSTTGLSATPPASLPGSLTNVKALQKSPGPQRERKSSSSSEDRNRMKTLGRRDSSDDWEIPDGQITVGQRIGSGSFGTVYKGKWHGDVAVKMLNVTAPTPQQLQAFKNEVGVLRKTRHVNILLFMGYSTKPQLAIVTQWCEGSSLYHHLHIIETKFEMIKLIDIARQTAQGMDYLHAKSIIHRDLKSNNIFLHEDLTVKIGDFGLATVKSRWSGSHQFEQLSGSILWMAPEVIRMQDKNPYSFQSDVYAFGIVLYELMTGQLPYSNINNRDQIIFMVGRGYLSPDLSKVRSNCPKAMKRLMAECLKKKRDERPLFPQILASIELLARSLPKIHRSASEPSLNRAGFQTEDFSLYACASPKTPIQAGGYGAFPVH

Homo sapiens = species: Homo sapiens; test: Selectivity index, ratio of IC50 for human BRAF V600E mutant to IC50 for human c-RAF
A549 [3] = test: Growth inhibition of human A549/ATCC cells assessed as cell growth at 0.005 uM incubated for 48 hrs by sulforhodamine B assay relative to control; format: functional; conditions: A549, 48 h, read-out: Activity
SK-MEL-5 [4] = test: Growth inhibition of human SK-MEL-5 cells assessed as cell growth at 0.005 uM incubated for 48 hrs by sulforhodamine B assay relative to control; format: functional; conditions: SK-MEL-5, 48 h, read-out: Activity
OVCAR-5 = test: Growth inhibition of human OVCAR5 cells assessed as cell growth at 0.5 uM incubated for 48 hrs by sulforhodamine B assay relative to control; format: functional; conditions: OVCAR-5, 48 h, read-out: Activity
M14 = test: Growth inhibition of human M14 cells assessed as cell growth at 0.5 uM incubated for 48 hrs by sulforhodamine B assay relative to control; format: functional; conditions: M14, 48 h, read-out: Activity
BT-549 [5] = test: Growth inhibition of human BT549 cells assessed as cell growth at 0.05 uM incubated for 48 hrs by sulforhodamine B assay relative to control; format: functional; conditions: BT-549, 48 h, read-out: Activity
MDA-MB-231 [6] = test: Growth inhibition of human MDA-MB-231 cells assessed as cell growth at 0.05 uM incubated for 48 hrs by sulforhodamine B assay relative to control; format: functional; conditions: MDA-MB-231, 48 h, read-out: Activity
NCI-H226 = test: Growth inhibition of human NCI-H226 cells assessed as cell growth at 50 uM incubated for 48 hrs by sulforhodamine B assay relative to control; format: functional; conditions: NCI-H226, 48 h, read-out: Activity
T47D = test: Growth inhibition of human T47D cells assessed as cell growth at 0.5 uM incubated for 48 hrs by sulforhodamine B assay relative to control; format: functional; conditions: read-out: Activity
NCI-H23 [7] = test: Growth inhibition of human NCI-H23 cells assessed as cell growth at 0.05 uM incubated for 48 hrs by sulforhodamine B assay relative to control; format: functional; conditions: NCI-H23, 48 h, read-out: Activity
MDA-MB-231 [8] = test: Growth inhibition of human MDA-MB-231 cells assessed as cell growth at 5 uM incubated for 48 hrs by sulforhodamine B assay relative to control; format: functional; conditions: MDA-MB-231, 48 h, read-out: Activity
SK-MEL-5 [9] = test: Growth inhibition of human SK-MEL-5 cells assessed as cell growth at 5 uM incubated for 48 hrs by sulforhodamine B assay relative to control; format: functional; conditions: SK-MEL-5, 48 h, read-out: Activity
A549 [10] = test: Growth inhibition of human A549/ATCC cells assessed as cell growth at 0.05 uM incubated for 48 hrs by sulforhodamine B assay relative to control; format: functional; conditions: A549, 48 h, read-out: Activity
SF-295 = test: Growth inhibition of human SF295 cells assessed as cell growth at 0.5 uM incubated for 48 hrs by sulforhodamine B assay relative to control; format: functional; conditions: SF-295, 48 h, read-out: Activity
OVCAR-4 = test: Growth inhibition of human OVCAR4 cells assessed as cell growth at 5 uM incubated for 48 hrs by sulforhodamine B assay relative to control; format: functional; conditions: OVCAR-4, 48 h, read-out: Activity
Hs-578T [11] = test: Growth inhibition of human Hs 578T cells assessed as cell growth at 5 uM incubated for 48 hrs by sulforhodamine B assay relative to control; format: functional; conditions: read-out: Activity
HCT-15 = test: Growth inhibition of human HCT15 cells assessed as cell growth at 0.5 uM incubated for 48 hrs by sulforhodamine B assay relative to control; format: functional; conditions: HCT-15, 48 h, read-out: Activity
Hs-578T [12] = test: Growth inhibition of human Hs 578T cells assessed as cell growth at 0.5 uM incubated for 48 hrs by sulforhodamine B assay relative to control; format: functional; conditions: read-out: Activity
BT-549 [13] = test: Growth inhibition of human BT549 cells assessed as cell growth at 0.005 uM incubated for 48 hrs by sulforhodamine B assay relative to control; format: functional; conditions: BT-549, 48 h, read-out: Activity
KM12 = test: Growth inhibition of human KM12 cells assessed as cell growth at 50 uM incubated for 48 hrs by sulforhodamine B assay relative to control; format: functional; conditions: KM12, 48 h, read-out: Activity
HCC 2998 = test: Growth inhibition of human HCC2998 cells assessed as cell growth at 50 uM incubated for 48 hrs by sulforhodamine B assay relative to control; format: functional; conditions: HCC 2998, 48 h, read-out: Activity
RPMI-8226 = test: Growth inhibition of human RPMI8226 cells assessed as cell growth at 5 uM incubated for 48 hrs by sulforhodamine B assay relative to control; format: functional; conditions: RPMI-8226, 48 h, read-out: Activity
HCT-116 = test: Growth inhibition of human HCT116 cells assessed as cell growth at 0.5 uM incubated for 48 hrs by sulforhodamine B assay relative to control; format: functional; conditions: HCT-116, 48 h, read-out: Activity
EKVX = test: Growth inhibition of human EKVX cells assessed as cell growth at 0.5 uM incubated for 48 hrs by sulforhodamine B assay relative to control; format: functional; conditions: read-out: Activity
NCI-H23 [14] = test: Growth inhibition of human NCI-H23 cells assessed as cell growth at 50 uM incubated for 48 hrs by sulforhodamine B assay relative to control; format: functional; conditions: NCI-H23, 48 h, read-out: Activity
U-251 = test: Growth inhibition of human U251 cells assessed as cell growth at 5 uM incubated for 48 hrs by sulforhodamine B assay relative to control; format: functional; conditions: U-251, 48 h, read-out: Activity
A498 = test: Growth inhibition of human A498 cells assessed as cell growth at 0.5 uM incubated for 48 hrs by sulforhodamine B assay relative to control; format: functional; conditions: A498, 48 h, read-out: Activity
NCI-H322M = test: Growth inhibition of human NCI-H322M cells assessed as cell growth at 0.5 uM incubated for 48 hrs by sulforhodamine B assay relative to control; format: functional; conditions: read-out: Activity
TK-10 = test: Growth inhibition of human TK10 cells assessed as cell growth at 50 uM incubated for 48 hrs by sulforhodamine B assay relative to control; format: functional; conditions: TK-10, 48 h, read-out: Activity
HL-60(TB) = test: Growth inhibition of human HL-60(TB) cells assessed as cell growth at 0.5 uM incubated for 48 hrs by sulforhodamine B assay relative to control; format: functional; conditions: HL-60, 48 h, read-out: Activity
UACC-257 = test: Growth inhibition of human UACC257 cells assessed as cell growth at 5 uM incubated for 48 hrs by sulforhodamine B assay relative to control; format: functional; conditions: UACC-257, 48 h, read-out: Activity
MCF7 = test: Growth inhibition of human MCF7 cells assessed as cell growth at 0.5 uM incubated for 48 hrs by sulforhodamine B assay relative to control; format: functional; conditions: MCF7, 48 h, read-out: Activity

Sequence of Tyrosine-protein kinase ABL1 (Homo sapiens) (P00519 whole entry): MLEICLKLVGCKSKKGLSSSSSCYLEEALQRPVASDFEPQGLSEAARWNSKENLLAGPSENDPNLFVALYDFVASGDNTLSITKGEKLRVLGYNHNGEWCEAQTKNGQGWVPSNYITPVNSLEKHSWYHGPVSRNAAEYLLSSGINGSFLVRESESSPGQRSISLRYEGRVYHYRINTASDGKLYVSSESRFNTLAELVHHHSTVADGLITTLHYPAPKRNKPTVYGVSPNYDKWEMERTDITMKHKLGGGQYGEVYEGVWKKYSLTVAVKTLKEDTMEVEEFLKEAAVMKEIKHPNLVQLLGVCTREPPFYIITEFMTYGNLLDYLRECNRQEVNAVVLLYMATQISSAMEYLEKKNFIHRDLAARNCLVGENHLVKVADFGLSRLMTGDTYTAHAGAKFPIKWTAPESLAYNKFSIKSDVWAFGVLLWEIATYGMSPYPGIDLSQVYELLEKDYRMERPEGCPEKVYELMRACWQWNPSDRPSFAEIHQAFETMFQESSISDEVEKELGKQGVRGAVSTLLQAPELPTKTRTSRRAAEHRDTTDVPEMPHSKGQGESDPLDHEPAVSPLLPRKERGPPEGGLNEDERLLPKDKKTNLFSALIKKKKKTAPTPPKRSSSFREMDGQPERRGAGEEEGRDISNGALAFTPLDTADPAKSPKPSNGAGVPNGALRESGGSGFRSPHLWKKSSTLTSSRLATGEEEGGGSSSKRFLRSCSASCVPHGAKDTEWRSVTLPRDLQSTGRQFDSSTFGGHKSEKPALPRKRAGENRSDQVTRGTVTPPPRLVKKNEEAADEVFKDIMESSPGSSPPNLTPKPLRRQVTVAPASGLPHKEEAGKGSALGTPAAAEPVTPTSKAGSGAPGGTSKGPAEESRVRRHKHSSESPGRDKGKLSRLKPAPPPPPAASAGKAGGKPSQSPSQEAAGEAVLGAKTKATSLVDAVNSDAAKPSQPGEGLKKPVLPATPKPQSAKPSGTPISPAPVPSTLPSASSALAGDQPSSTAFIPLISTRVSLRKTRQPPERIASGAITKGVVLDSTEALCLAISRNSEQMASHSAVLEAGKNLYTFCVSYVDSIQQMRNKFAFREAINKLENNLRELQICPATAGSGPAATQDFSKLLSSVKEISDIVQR

COc1cc2cc(Oc3ccc(NC(=O)Nc4ccc(Cl)c(C(F)(F)F)c4)cc3)c(C)nc2cc1OC
inhibition [1]: -6.78% | inhibition [2]: 74.2% | Ratio IC50 (Homo sapiens): 2.6

COc1cc2cc(Oc3ccc(NC(=O)Nc4cccc(C(F)(F)F)c4)cc3)c(C)nc2cc1OC
growth at 0.005 µM (A549 [3]): 98% | growth at 0.005 µM (SK-MEL-5 [4]): 96% | growth at 0.5 µM (OVCAR-5): 119% | growth at 0.5 µM (M14): 90% | growth at 0.05 µM (BT-549 [5]): 84% | growth at 0.05 µM (MDA-MB-231 [6]): 95% | growth at 50 µM (NCI-H226): -67% | growth at 0.5 µM (T47D): 94% | growth at 0.05 µM (NCI-H23 [7]): 99% | growth at 5 µM (MDA-MB-231 [8]): -7% | growth at 5 µM (SK-MEL-5 [9]): -35% | growth at 0.05 µM (A549 [10]): 96% | growth at 0.5 µM (SF-295): 86% | growth at 5 µM (OVCAR-4): 25% | growth at 5 µM (Hs-578T [11]): -8% | growth at 0.5 µM (HCT-15): 92% | growth at 0.5 µM (Hs-578T [12]): 99% | growth at 0.005 µM (BT-549 [13]): 96% | growth at 50 µM (KM12): -59% | growth at 50 µM (HCC 2998): 4% | growth at 5 µM (RPMI-8226): -25% | growth at 0.5 µM (HCT-116): 88% | growth at 0.5 µM (EKVX): 89% | growth at 50 µM (NCI-H23 [14]): -42% | growth at 5 µM (U-251): 5% | growth at 0.5 µM (A498): 85% | growth at 0.5 µM (NCI-H322M): 107% | growth at 50 µM (TK-10): -46% | growth at 0.5 µM (HL-60(TB)): 112% | growth at 5 µM (UACC-257): -13% | growth at 0.5 µM (MCF7): 85%
